# Measured values published in patent US20150202186A1, “CYSTATHIONINE-(gamma)-LYASE (CSE) INHIBITORS FOR TREATING PAIN” (SOVA PHARMACEUTICALS, INC., priority 2014, published 2015).
# Target: recombinant CSE (cystathionine-γ-lyase) (UniProt P32929)
# Assay: CSE In Vitro Assay
row,SMILES,IC50
1,CN(N)c1nnn(C)n1 [Compound 38],> 100 µM
2,CCN(N)c1nnn[nH]1 [Compound 13],< 25 µM
3,COCCN(N)c1nnn[nH]1 [Compound 15],25 to 100 µM
